The structures appear in SMILES notation. Like-named read-outs stand apart in the source and are kept apart here.

The subject of series [1] is HER-family receptors. Briefly: CELsignia real-time live cell IC50 titration of pan-HER inhibitors against NRG1b/EGF stimulation, primary breast cancer cells. Format: cell-based, human. Particulars: six primary breast cancer cell samples with hyperactive HER- and c-Met signaling; inhibitor 18 h before NRG1b/EGF; Poziotinib three, Tucatinib five samples. How it is done:
Owing to limited numbers of non-passaged or low passaged primary cells, 1000-fold, five-point dose response for antagonists to HER-family and c-Met receptors was performed for each corresponding agonist stimulus (i.e. NRG1b/EGF for HER-family activation and HGF for c-Met activation) in a live-cell CELsignia assay and the observed values were averaged. Drug additions were made 18 h prior to agonist addition. The measurand recording period of four hours began after the agonist addition. Response was plotted as a percent of the maximum response to the agonist observed in the absence of any antagonist using GraphPad Prism software and IC50 values were derived using non-linear regression.
A representative dose–response curve of cells from patient R66 to stimulation with NRG1b/EGF following pre-treatment with the indicated antagonists is shown in Fig. 4a. A total of six primary cell lines isolated from as many patients were included in this IC50 titration test and the average values are summarized in Table 1. The IC50 values for pan-HER antagonists against NRG1b/EGF stimulation determined from our real-time live cell assay align with what was previously reported in cell-free assays.

Series [2] concerns HCC1954 xenograft. Particulars: NSG mice; for Tumor reduction, drug arm versus control: oral gavage QD 21 doses, Neratinib 40, Tepotinib 50, Erlotinib 25 mg/kg. How it is done: A selection of an appropriate cell line was necessary owing greatly to the limited commercially available tumorigenic breast cancer mouse models with the abnormal signaling function of interest to this study. Female NSG (NOD SCID gamma; NOD.Cg-Prkdc^scid Il2rg^tm1Wjl/SzJ) mice were procured from Jackson Labs (Bar Harbor, Maine, USA). The mice were injected in their fat pad with HCC1954 cells dissolved in 150 µL of a 50% Matrigel solution. Tumors were allowed to form until they reached a minimum average size of 150 mm^3. At this time, the tumor bearing cohort was divided up into 10-mouse treatment groups of uniform distribution of tumor sizes, just prior to initiating treatment. Tumor size and body weights were measured a minimum of twice per week. Upon completion of the study period, the mice were euthanized for necropsy and sample/tissue collection at the study endpoint or when tumor size reached ≥ 2 cm^3.
Female NSG mice, 4–5 weeks old, were injected subcutaneously in the left mammary fat pad with two million HCC1954 cells. After the average tumor volume reached 150 mm^3 the mice were randomly assigned into six cohorts of 10 mice each (n = 10). Each of the experimental mice were dosed by oral gavage with 100 µL dosing solution daily (QD) for 21 days (21 doses). […] In order to determine the effects of the pan-HER and c-Met antagonists on tumor size, the tumor volume (in mm^3) was measured and plotted as shown in Fig. 8b.

The test system of series [3] is A549 cells. The experiment in a line: Flow cytometry of cell toxicity markers, A549, 72 h. It is filed as cell-based, human. As to conditions: neratinib and/or tepotinib. The protocol:
For analysis of cell toxicity, single cell suspensions were stained with TMRE (200 nM for 30 min), washed with FACS buffer, and stained with Annexin V-AlexaFluor647 (Biolegend; San Diego, CA) following the manufacturers’ instructions. The TMRE/Annexin V stained cells were resuspended in FACS buffer containing Sytox Blue (Thermo Fisher; Waltham, MA) and analyzed on a Novocyte 3000 FACS instrument and NovoExpress software (Agilent; Santa Clara, CA). […]
marker resistance to prolonged drug treatment – Normal signaling cell line, A549. A549 cell […]
A549 cells were treated with neratinib […]
(§1) cytometry for cell death using Sytox Blue, apoptosis marker annexin V, and mitochondrial potential by TMRE staining. Flow cytometry histogram plots are representative of at least two […]
(§2) according to these markers.
(§3) (1 picture or pasted object on this page, not shown here)
(In general: A flow cytometer gives signals particle by particle.)

The test system of series [4] is AKT-pS473 and FAK-pS910 in HCC1954 cells. The experiment in a line: Intracellular phospho-flow cytometry of AKT-pS473 and FAK-pS910, HCC1954. As to conditions: 16 h. It is filed as cell-based, human.
Series [5] relates to HER-family (EGF stimulation). The experiment in a line: Impedance test IC50 with single growth factor EGF (set-up of median effects, HCC1954). It is filed as cell-based, human. As to conditions: neratinib + EGF. The source says: Fig. S5: Median effects plots.
EGF on HCC1954. When CI>1,
and Talalay. CI<1 is indicative of synergy. C) Antagonist median effects plot of patient sample
indicative of additivity; CI<1 is indicative of synergy.

The test system of series [6] is HER-family and c-Met receptors. Briefly: CELsignia inhibition of combined NRG/EGF/HGF cocktail signal, patient breast cancer cells. It is filed as cell-based, human. As to conditions: patient C135; Neratinib 500 nM, tepotinib 50 nM; compared to growth factor only well.
Procedure: To simulate this multiplexed perturbant condition and test the ability of the different targeted drugs to attenuate abnormal signaling from multiplexed agonists, patient breast cancer cells were stimulated with a growth factor cocktail of EGF, NRG1b, and HGF (N/E/H) to simultaneously initiate signaling via the HER-family and c-Met receptors. […] Cell index signaling units were calculated relative to the baseline values obtained from cells that were not treated with either agonists or antagonists.
Series [7] relates to MDA-MB-231 cells. Briefly: Flow cytometry of cell toxicity markers, MDA-MB-231. Format: cell-based, human. As to conditions: 250 nM, singly or in combination, 16h. The protocol:
(§4) For analysis of cell toxicity, single cell suspensions were stained with TMRE (200 nM for 30 min), washed with FACS buffer, and stained with Annexin V-AlexaFluor647 (Biolegend; San Diego, CA) following the manufacturers’ instructions. The TMRE/Annexin V stained cells were resuspended in FACS buffer containing Sytox Blue (Thermo Fisher; Waltham, MA) and analyzed on a Novocyte 3000 FACS instrument and NovoExpress software (Agilent; Santa Clara, CA). For analysis of intracellular phosphoproteins by FACS, cells were stained using a Live/Dead fixable dye (Zombie NIR; BioLegend), fixed using 1.6% paraformaldehyde, permeabilized with cold-methanol, and then stained using antibodies towards AKT-pS473 (Cell Signaling Technology; Danvers, MA) and FAK-pS910 (BD Biosciences) (Table S2) prior to FACS analysis.
Figure S8. CELsignia test is more sensitive and rapid for detecting anti-cancer drug efficacy compared to biological correlates – Normal signaling cell line, MDA-MB-231. MDA-MB-231 cells were normal signaling for HER and c-Met by the CELsignia test. To test flow cytometry markers for correlation a test was setup following the dose and time parameters used for the CELsignia test. The cells were seeded in collagen-fibrinogen (CF) coated culture plates and treated […]
indicated. Cells were harvested and then analyzed by flow cytometry for the markers shown following a period of 16h drug treatment. […]
these drugs according to the Sytox blue marker.
as §3
Figure S10. CELsignia test is more sensitive and rapid for detecting anti-cancer drug efficacy compared to biological correlates – Normal signaling cell line, MDA-MB-231 continued.
MDA-MB-231 cells were seeded in collagen-fibrinogen (CF) coated culture plates and treated 6h […]
Cells were harvested and then analyzed by flow cytometry for the markers shown following a period of 16h drug treatment. […]
according to annexin V marker.
Figure S12. CELsignia test is more sensitive and rapid for detecting anti-cancer drug efficacy […]
according to TMRE marker.

In series [8] the test system is BT-474 cells. The experiment in a line: Flow cytometry of cell toxicity markers, BT-474, 72 h. It is filed as cell-based, human. Particulars: neratinib and/or tepotinib. How it is done:
as §4, with “analysis. […]” for “analysis.”
marker resistance to prolonged drug treatment – Normal signaling cell line, BT474. BT-474 […]
These cell lines were treated with neratinib […]
as §1, §2, §3

In series [9] the test system is HER/c-met signaling in HCC1954 cells. Briefly: CELsignia analysis of HCC1954 cells, antagonists against cocktail of agonists (NRG, EGF, HGF). Format: cell-based, human. Particulars: cocktail NRG 3 nM, EGF 0.3 nM, HGF 50 pM, errors are standard deviation. The protocol: During the combined drug testing, we investigated the benefit of targeting HER1 specifically in combination with c-Met.
2.5 3x GF (N RG 3 n M, E G F 0. 3 nM , HG F 50 p M)
Fig. S6: Impedance time course example for antagonist effects on a cocktail of agonists
(NRG, EGF and HGF) for HCC1954 used to derive data in Table 7 (N of 4 experiments).
Also included on the plot timecourse are cells only (HSSM, red line) untreated by agonist

Series [10] relates to BT-20 cells. Briefly: Flow cytometry of cell toxicity markers, BT-20. Format: cell-based, human. Particulars: 250 nM, singly or in combination, 16h. The protocol: as §4
Figure S7. CELsignia test is more sensitive and rapid for detecting anti-cancer drug efficacy compared to biological correlates – Normal signaling cell line, BT-20. BT-20 cells were normal signaling for HER and c-Met by the CELsignia test. To test flow cytometry markers for correlation a test was setup following the dose and time parameters used for the CELsignia test. The cells […]
(250 nM) and neratinib (250 nM), either singly or in combination, as indicated. Cells were harvested and then analyzed by flow cytometry for the markers shown following a period of 16h […]
as §3
Figure S9. CELsignia test is more sensitive and rapid for detecting anti-cancer drug efficacy compared to biological correlates – Normal signaling cell line, BT20 continued. BT-20 cells […]
Figure S11. CELsignia test is more sensitive and rapid for detecting anti-cancer drug efficacy compared to biological correlates – Normal signaling cell line, BT-20 continued. BT-20 cells

Series [11] has as its target T1, c-Met (Homo sapiens, UniProt P08581). Briefly: Cross-talk analysis, inhibition of HGF signal in patient primary tumor cells (CELsignia). As to conditions: HGF 50 pM, Erlotinib 500 nM, Tucatinib 250 nM, Tepotinib 50 nM, four-hour period.
For series [12], the target named is T1, c-Met. The experiment in a line: cell-based.
Where [13] appears, read: read-out: Percent inhibition of growth factor signal, patient C753.
Setting [14] is: read-out: Percent inhibition of growth factor signal, patient C1061.
The mark [15] stands for this setting: read-out: Percent inhibition of growth factor signal, patient R66.

T1 sequence (P08581 25-1390): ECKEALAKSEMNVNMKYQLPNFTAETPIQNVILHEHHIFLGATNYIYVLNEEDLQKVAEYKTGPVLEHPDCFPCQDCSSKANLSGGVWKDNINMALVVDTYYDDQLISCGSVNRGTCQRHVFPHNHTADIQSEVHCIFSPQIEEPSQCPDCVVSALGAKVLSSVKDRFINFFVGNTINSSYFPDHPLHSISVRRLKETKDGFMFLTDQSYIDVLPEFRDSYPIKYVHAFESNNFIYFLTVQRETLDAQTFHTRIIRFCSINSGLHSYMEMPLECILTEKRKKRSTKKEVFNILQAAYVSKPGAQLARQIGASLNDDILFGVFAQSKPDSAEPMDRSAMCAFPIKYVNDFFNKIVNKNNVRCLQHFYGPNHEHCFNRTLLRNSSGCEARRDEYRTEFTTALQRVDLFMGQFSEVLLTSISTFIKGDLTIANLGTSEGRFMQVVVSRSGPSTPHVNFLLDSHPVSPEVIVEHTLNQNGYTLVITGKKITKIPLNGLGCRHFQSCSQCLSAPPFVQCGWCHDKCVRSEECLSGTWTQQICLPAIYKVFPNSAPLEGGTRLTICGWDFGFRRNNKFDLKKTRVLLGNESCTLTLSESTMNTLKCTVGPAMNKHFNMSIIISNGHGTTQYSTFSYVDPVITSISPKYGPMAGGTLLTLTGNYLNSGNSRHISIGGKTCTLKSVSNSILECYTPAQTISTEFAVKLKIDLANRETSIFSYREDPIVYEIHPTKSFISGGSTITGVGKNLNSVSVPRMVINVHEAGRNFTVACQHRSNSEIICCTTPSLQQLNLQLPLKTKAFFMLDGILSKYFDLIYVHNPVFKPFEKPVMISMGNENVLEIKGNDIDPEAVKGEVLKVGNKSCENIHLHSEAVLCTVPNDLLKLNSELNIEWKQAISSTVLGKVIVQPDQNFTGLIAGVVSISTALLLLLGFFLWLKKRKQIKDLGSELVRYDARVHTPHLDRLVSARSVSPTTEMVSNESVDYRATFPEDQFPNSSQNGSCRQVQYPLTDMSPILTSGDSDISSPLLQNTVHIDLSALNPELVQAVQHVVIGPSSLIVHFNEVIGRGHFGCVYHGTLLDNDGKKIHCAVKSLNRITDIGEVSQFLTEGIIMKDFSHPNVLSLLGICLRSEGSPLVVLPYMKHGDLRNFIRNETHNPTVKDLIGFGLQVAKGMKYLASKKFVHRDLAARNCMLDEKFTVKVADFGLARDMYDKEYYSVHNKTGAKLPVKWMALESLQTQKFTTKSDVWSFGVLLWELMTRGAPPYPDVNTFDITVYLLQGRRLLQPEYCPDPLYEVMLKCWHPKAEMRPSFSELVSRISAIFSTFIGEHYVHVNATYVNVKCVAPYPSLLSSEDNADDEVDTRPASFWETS

Broadly, the IC50 is the concentration at which inhibition is half-maximal. As for `CS(=O)(=O)CCNCc1ccc(-c2ccc3ncnc(Nc4ccc(OCc5cccc(F)c5)c(Cl)c4)c3c2)o1` [Lapatinib], in [1], the IC50 was found to be 137 nM.
Consider `CCOc1cc2ncc(C#N)c(Nc3ccc(OCc4ccccn4)c(Cl)c3)c2cc1NC(=O)/C=C/CN(C)C` [Neratinib], for which the “Tumor reduction, drug arm versus control” value was 54% (p = 0.003) in series [2] and 54% in [2] (listed as neratinib). Besides, the “Response according to Sytox Blue, annexin V and TMRE markers” value (shortened to “Response according to Sytox Blue”) in series [3] and in series [8] was “do not respond” throughout. For the same compound, in series [4], the “distribution of pFAK high cells” value was “not significantly altered”. Besides, the “frequency of pAKT high cells” value in series [4] (singly and in combination with tepotinib) was “dose-dependent decline”. The results for the IC50 in [5] and in series [1] were 15 nM and 4.81 nM, respectively. Also, the “Order of efficacy against response to simultaneous NRG, EGF and HGF” value in series [6] is on record as “more efficacious”. Further, the “Response according to TMRE marker” value in series [7] and in series [10] was “do not respond” each time. Also, the “Response according to annexin V marker” value in series [7] and in series [10] was “do not respond” throughout. The “Response according to the Sytox blue marker” value in [7] and in series [10] was “do not respond” throughout. Besides, in series [9], the “HER/c-met inhibition (%)” value is on record as 14.6 ± 29.6 (n = 4) %.
`CN1CCC(COc2cnc(-c3cccc(Cn4nc(-c5cccc(C#N)c5)ccc4=O)c3)nc2)CC1` [Tepotinib]: the “Tumor reduction, drug arm versus control” value in [2] is 10% (p = 0.780). Moreover, in series [2] (oral gavage QD, Tepotinib 50 mg/kg, Neratinib + Tepotinib 40 + 50 mg/kg), the “Adverse observations in treated cohort” value is “^#Due to weight loss, 1 mouse given 3 day dose holiday due, and 1 mouse given 7 day dose holiday”. Moreover, the “Response according to Sytox Blue” value in [3] is given as “do not respond”. Besides, the “effect on pFAK and pAKT population distributions” value in series [4] (single agent) was “no detectable dose-dependent effect”. Also, in series [7], the “Response according to TMRE marker” value is “do not respond”, the “Response according to annexin V marker” value is on record as “do not respond” and the “Response according to the Sytox blue marker” value is listed as “do not respond”. Also, in [8], the “Response according to Sytox Blue” value is listed as “do not respond”. In series [10], the “Response according to TMRE marker” value was “do not respond”, the “Response according to annexin V marker” value is listed as “do not respond” and the “Response according to the Sytox blue marker” value is listed as “do not respond”.
The compound `C=CC(=O)N1CCC(Oc2cc3c(Nc4ccc(Cl)c(Cl)c4F)ncnc3cc2OC)CC1` [Poziotinib] yielded an IC50 in series [1] of 1.23 nM.
Broadly, the inhibition is the change of the read-out against control, counted positive when it falls. `Cc1cc(Nc2ncnc3ccc(NC4=NC(C)(C)CO4)cc23)ccc1Oc1ccn2ncnc2c1` [Tucatinib]: the values for the inhibition at 0.25 µM in [11] (setting [13]), in [11] (setting [14]) and in [11] (setting [15]) were -6%, -13% and 25%, respectively. This compound also had an IC50 in [1] of 333 nM.
With `C=CC(=O)N1CCC[C@@H](n2nc(-c3ccc(Oc4ccccc4)cc3)c3c(N)ncnc32)C1` [Ibrutinib], in series [1], the IC50 amounted to 13.1 nM.
In the case of `COc1cc2ncnc(Nc3ccc(F)c(Cl)c3)c2cc1NC(=O)/C=C/CN1CCCCC1` [Dacomitinib], the IC50 in [1] is 22.1 nM.
In the case of `C#Cc1cccc(Nc2ncnc3cc(OCCOC)c(OCCOC)cc23)c1` [Erlotinib], in series [2], the “Tumor reduction, drug arm versus control” value is recorded as 5% (p = 0.870). In addition, the inhibition at 0.5 µM in series [11] (setting [13]) stood at 15%; in series [11] (setting [14]), 7%; in [11] (setting [15]), 38%. Also, the “HER/c-met inhibition (%)” value in [9] was 9.2 ± 10.3 (n = 2) %.
In the case of `C[C@@H](c1ccc2nccn2c1)n1nnc2ncc(-c3cnn(C)c3)nc21` [Savolitinib], the midpoint of inhibition in [12], the IC50, lay at 3.56 nM.
Turning to `CNC(=O)CN1CCC(Oc2cc3c(Nc4cccc(Cl)c4F)ncnc3cc2OC)CC1` [Sapitinib], half-maximal inhibition in series [1] (IC50) was put at 41.3 nM.

Values taken from publication PMC8742957, “Functional signaling test identifies HER2 negative breast cancer patients who may benefit from c-Met and pan-HER combination therapy” (Cell Communication and Signaling : CCS, 2022).
